Results as given in patent US4062853A, “Chloro-pyridinyloxymethyl esters of thiocyanic acid” (The Dow Chemical Company, priority 1973, dated 1977).
≈ marks a conversion by molar mass, not a printed value.

Tests used:
Assay type in all cases: cell-based
Trichoderma sp. 42 = assay: conventional agar dilution test, fungicidal activity, Trichoderma sp. 42; details: complete growth inhibition, read-out: Minimum Inhibitory Concentration
Excerpt: (§1) In representative operations, the products of the invention when tested for fungicidal activity using conventional agar dilution tests gave complete growth inhibition against the following organisms at the indicated concentrations in parts per million: […]

Ceratocystis ips = assay: conventional agar dilution test, fungicidal activity, Ceratocystis ips; details: complete growth inhibition, read-out: Minimum Inhibitory Concentration
Excerpt: as §1

Candida pelliculosa = assay: conventional agar dilution test, fungicidal activity, Candida pelliculosa; details: Hansenula anomala, complete growth inhibition, read-out: Minimum Inhibitory Concentration
Excerpt: as §1

Aspergillus terreus = assay: conventional agar dilution test, fungicidal activity, Aspergillus terreus; details: complete growth inhibition, read-out: Minimum Inhibitory Concentration
Excerpt: as §1

Rhizopus nigricans = assay: conventional agar dilution test, fungicidal activity, Rhizopus nigricans; details: Rhizopus stolonifer, complete growth inhibition, read-out: Minimum Inhibitory Concentration
Excerpt: as §1

[1] = test system: Trichophyton mentagrophytes; assay: conventional agar dilution test, fungicidal activity, Trichophyton mentagrophytes; details: complete growth inhibition, read-out: Minimum Inhibitory Concentration
Excerpt: as §1

Candida albicans = assay: conventional agar dilution test, fungicidal activity, Candida albicans; details: complete growth inhibition, read-out: Minimum Inhibitory Concentration
Excerpt: as §1

Pullularia pullulans = assay: conventional agar dilution test, fungicidal activity, Pullularia pullulans; details: complete growth inhibition, read-out: Minimum Inhibitory Concentration
Excerpt: as §1

| SMILES | MIC (Trichoderma sp. 42) [µg/mL] | MIC (Ceratocystis ips) [µg/mL] | MIC (Candida pelliculosa) [µg/mL] | MIC (Aspergillus terreus) [µg/mL] | MIC (Rhizopus nigricans) [µg/mL] | MIC [1] [µg/mL] | MIC (Candida albicans) [µg/mL] | MIC (Pullularia pullulans) [µg/mL] |
| --- | --- | --- | --- | --- | --- | --- | --- | --- |
| N#CSCOc1nc(F)c(Cl)cc1Cl [V, Thiocyanic acid, [(3,5-dichloro-6-fluoro-2-pyridinyl)oxy]methyl ester] | 10 (≈ 39.5 µM) | 10 (≈ 39.5 µM) | 10 (≈ 39.5 µM) | 1 (≈ 3.95 µM) | 10 (≈ 39.5 µM) | 1 (≈ 3.95 µM) | 10 (≈ 39.5 µM) | 10 (≈ 39.5 µM) |
| N#CSCOc1nc(Cl)c(Cl)cc1Cl [I, [(3,5,6-trichloro-2-pyridinyl)oxy]methyl thiocyanate] | 10 (≈ 37.1 µM) | 1 (≈ 3.71 µM) | 10 (≈ 37.1 µM) | 1 (≈ 3.71 µM) | 10 (≈ 37.1 µM) | 1 (≈ 3.71 µM) | 10 (≈ 37.1 µM) | 10 (≈ 37.1 µM) |
| N#CSCOc1nc(Cl)c(Cl)c(OCCl)c1Cl [IV, Thiocyanic acid, [(3,5,6-trichloro-4-(chloromethoxy)-2-pyridinyl)oxy]methylester] | 10 (≈ 29.9 µM) | 10 (≈ 29.9 µM) | 10 (≈ 29.9 µM) | 10 (≈ 29.9 µM) | 100 (≈ 299 µM) | 1 (≈ 2.99 µM) | 10 (≈ 29.9 µM) | 10 (≈ 29.9 µM) |
| N#CSCOc1c(Cl)cnc(Cl)c1Cl [III, Thiocyanic acid, [(2,3,5-trichloro-4-pyridinyl)oxy]methyl ester] | 10 (≈ 37.1 µM) | 10 (≈ 37.1 µM) | 10 (≈ 37.1 µM) | 1 (≈ 3.71 µM) | 10 (≈ 37.1 µM) | 1 (≈ 3.71 µM) | 10 (≈ 37.1 µM) | 1 (≈ 3.71 µM) |
| N#CSCOc1cc(C(Cl)(Cl)Cl)cc(Cl)n1 [VI, Thiocyanic acid [(6-chloro-4-(trichloromethyl)-2-pyridinyl)-oxy]methyl ester] | 100 (≈ 314 µM) | 10 (≈ 31.4 µM) | 100 (≈ 314 µM) | 1 (≈ 3.14 µM) | 100 (≈ 314 µM) | 1 (≈ 3.14 µM) | 100 (≈ 314 µM) | 10 (≈ 31.4 µM) |
| N#CSCOc1c(Cl)c(Cl)nc(Cl)c1Cl [II, Thiocyanic acid, [(2,3,5,6-tetrachloro-4-pyridinyl)oxy]-methyl ester] | > 100 | 10 (≈ 32.9 µM) | > 100 | 10 (≈ 32.9 µM) | > 100 | 1 (≈ 3.29 µM) | > 100 | 100 (≈ 329 µM) |
